pIC50: −log10 of the molar value. Where a name gives a salt, the structure may show the parent alone.
Legend:
NHE3 = molecular target: T1, NHE3 (Homo sapiens, UniProt P48764); experiment: Determination of the NHE-inhibitory effect (recovery of intracellular pH after acidification, BCECF fluorescence); type: cell-based; conditions: pH recovery recorded for three minutes with NHE3; BCECF-loaded cells
T1 sequence (P48764 26-834): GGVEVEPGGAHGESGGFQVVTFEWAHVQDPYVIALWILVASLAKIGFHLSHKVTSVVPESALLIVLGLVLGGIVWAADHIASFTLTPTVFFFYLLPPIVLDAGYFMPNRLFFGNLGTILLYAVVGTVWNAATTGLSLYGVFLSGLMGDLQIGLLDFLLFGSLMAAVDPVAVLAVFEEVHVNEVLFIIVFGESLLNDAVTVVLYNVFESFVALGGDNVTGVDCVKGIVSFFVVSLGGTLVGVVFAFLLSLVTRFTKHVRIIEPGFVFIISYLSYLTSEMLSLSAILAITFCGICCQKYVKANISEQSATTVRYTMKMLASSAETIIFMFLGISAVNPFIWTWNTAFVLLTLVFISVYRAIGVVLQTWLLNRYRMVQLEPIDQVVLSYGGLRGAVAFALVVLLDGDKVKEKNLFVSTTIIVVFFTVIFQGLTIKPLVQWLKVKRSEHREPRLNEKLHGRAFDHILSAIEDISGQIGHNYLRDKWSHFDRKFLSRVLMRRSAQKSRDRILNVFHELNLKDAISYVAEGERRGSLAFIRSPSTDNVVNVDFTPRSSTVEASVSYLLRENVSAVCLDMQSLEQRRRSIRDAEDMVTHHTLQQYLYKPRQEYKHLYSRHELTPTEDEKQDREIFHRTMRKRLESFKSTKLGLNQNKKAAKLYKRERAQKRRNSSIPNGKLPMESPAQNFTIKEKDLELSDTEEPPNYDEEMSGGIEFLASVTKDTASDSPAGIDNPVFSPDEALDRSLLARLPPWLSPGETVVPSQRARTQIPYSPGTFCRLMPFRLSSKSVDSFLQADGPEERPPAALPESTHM
Experimental: Description of Assay: Determination of the NHE-Inhibitory Effect
In this assay, the recovery of the intracellular pH (pHj) after an acidification which occurs even under bicarbonate-free conditions with functional NHE was determined. To this end, the pHj was determined using the pH-sensitive fluorescent dye BCECF (Calbiochem, the precursor BCECF-AM was employed). The cells were initially loaded with BCECF. The BCECF fluorescence was determined in a ratio fluorescence spectrometer (Photon Technology International, South Brunswick, N.J., USA) with excitation wavelengths of 505 and 440 nm and an emission wavelength of 535 nm and converted into the pHj using calibration plots. The cells had been incubated in NH4Cl buffer (pH 7.4) for the BCECF loading (NH4Cl buffer: 115 mM NaCl, 20 mM NH4Cl, 5 mM KCl, 1 mM CaCl2, 1 mM MgSO4, 20 mM Hepes, 5 mM glucose, 1 mg/ml BSA; a pH of 7.4 was adjusted with 1 M NaOH). The intracellular acidification was induced by adding 975 μl of an NH4Cl-free buffer (see below) to 25 μl aliquots of the cells incubated in NH4Cl buffer. The subsequent rate of pH recovery was recorded for two minutes with NHE1, five minutes with NHE2 and three minutes with NHE3. To calculate the inhibitory power of the tested substances, the cells were initially investigated in buffers with which there was complete or absolutely no pH recovery. For complete pH recovery (100%), the cells were incubated in Na^+-containing buffer (133.8 mM NaCl, 4.7 mM KCl, 1.25 mM CaCl2, 1.25 mM MgCl2, 0.97 mM Na2HPO4, 0.23 mM NaH2PO4, 5 mM Hepes, 5 mM glucose, a pH of 7.0 was adjusted with 1 M NaOH). To determine the 0% value, the cells were incubated in an Na^+-free buffer (133.8 mM choline chloride, 4.7 mM KCl, 1.25 mM CaCl2, 1.25 mM MgCl2, 0.97 mM K2HPO4, 0.23 mM KH2PO4, 5 mM Hepes, 5 mM glucose, a pH of 7.0 was adjusted with 1 M NaOH). The substances to be tested were made up in the Na^+-containing buffer. The recovery of the intracellular pH at each tested concentration of a substance was expressed as a percentage of the maximum recovery. The IC50 of the respective substance for the individual NHE subtypes was calculated from the percentages of pH recovery using the Sigma Plot program.

SMILES | pIC50 (NHE3) | melting point [°C]
NC1=NCC(c2ccc(N)cc2)c2ccccc21 (centres unmarked) [Example 1B, 1-amino-4-(4-aminophenyl)-3,4-dihydroisoquinoline Hydrochloride] | 5.08 | –
NC1=NCC(c2ccc(N)cc2)c2cc(Cl)ccc21 (centres unmarked) [Example 1A, 1-Amino-4-(4-aminophenyl)-6-chloro-3,4-dihydroisoquinoline Hydrochloride] | 5.71 | –
NC1=NCC(c2ccc(N)cc2)c2cc(Cl)ccc21 (centres unmarked) (as salt: hydrochloride) [Example 1A, 1-Amino-4-(4-aminophenyl)-6-chloro-3,4-dihydroisoquinoline Hydrochloride] | – | 278 to 284
NC1=NCC(c2ccccc2N)c2cc(Cl)ccc21 (centres unmarked) [Example 2, 1-Amino-4-(2-aminophenyl)-6-chloro-3,4-dihydroisoquinoline Hydrochloride] | 5.79 | –
CNC1=NCC(c2ccc(N)cc2)c2cc(Cl)ccc21 (centres unmarked) [Example 3, 4-(4-Aminophenyl)-6-chloro-1-methylamino-3,4-dihydroisoquinoline Hydrochloride] | 5.31 | –
